Measurements reported in patent publication US20110262562A1, “AQUEOUS SALINE SOLUTIONS FOR THE DESTRUCTION OF FATTY TISSUE” (LIPOLYANE, priority 2008, published 2011).

Columns and labels:
[1] = test system: adipocytes prepared from murine adipous tissues; test: LDH released into the culture medium by murine adipocytes; format: cell-based; conditions: TDC 500 μM in 150 mOsm/L, compared with 150 mOsm/L alone (FIG. 7)
Description: Adipocytes were prepared from murine adipous tissues in the following way. Adipous tissues were sampled under aseptic conditions on anesthetized animals, and then finally cut and subjected to a dissociating enzymatic treatment with collagenase type II at 37° C. The incubation mixture was then centrifuged in order to remove the tissue debris. The adipocytes were purified by filtration under sterile conditions on a 160 μm nylon filter. After mild centrifugation, the adipocytes were washed from a phosphate buffer solution with pH 7.4 and, after counting, taken up again into a cell culture medium adapted from the type of Dubelco Modified Eagle's Medium or DMEM, and finally placed in sterile culture flasks and incubator at 37° C. adapted to the experiments. […]
Cell lysis was appreciated by the change in the number of adipocytes on the one hand and by the dosage of an intracellular enzyme released into the culture medium, lactico-dehydrogenase (abbreviated hereafter as LDH) on the other hand, expressed as a percentage with respect to the conditions for which cell lysis is complete (obtained in the presence of distilled water) and by comparison with the conditions of cell cultures.

[2] = test system: line of human adipocytes (SW872); test: LDH activity released on lysis of human adipocytes in culture; format: cell-based
Description: To do this, adipocytes were incubated for durations comprised between 0 and 2 hours, in aqueous saline solutions according to the invention, and for which the concentrations of poloxamers and of biliary acid […]
The efficiency of adipocyte lysis was appreciated by the measurement of the activity of a cytosolic enzyme lactico dehydrogenase (LDH), released in the culture medium and expressed as a percentage of the total lysis.
The cells were derived from a line of human adipocytes (SW872) stemming from a liposarcoma deposited at the American Cell Bank of the National Institute of Health (NIH).
The adipocytes were cultivated in the following medium: DMEM (Dubelco's modified Eagle medium) with a high glucose content (4.5 g/L) which contained pyruvate, antibiotics (penicillin/streptomycin), a supplement of amino acids and 25% of Ham-F12 medium.
It should be noted that the experiments were then conducted in the presence of 1% fetal calf serum in order to minimize basal LDH activity likely to be present in the serum.
The salts of biliary acids and/or the poloxamers were put into solution in the aforementioned culture medium under sterile conditions. Suitable diluted aqueous saline solutions were made from parent solutions at 2% for poloxamers and 3 mM for the biliary acid salt.
The adipocytes were cultivated under sterile conditions (plastic dishes, incubator with 5% CO2, 37° C.) in suitable specific media and used for less than 10 passages oso as to conduct experiments on primary cells, i.e. close to the original adipous tissues. Cell counts were carried out in Mallassez cells and the viability was appreciated by exclusion of the blue dye Trypan.
After re-suspending them under the action of trypsin, the adipocytes were incubated in sterile 96-well plates. For experiments requiring significant amounts of cells, the preliminary incubations were conducted in sterile 24-well plates, and then transferred into 96-well plates (round bottom) for centrifugation, in order to efficiently separate entire cells from lyzed cells having released their enzymatic content then again found in the supernatant. An aliquot (100 μL) of the latter was then transferred into another 96-well plate adapted to dosages (flat bottom). After addition of the mixture of corresponding reagents (kit BioChain #K6330400), LDH activity was then measured (after incubation for 40 minutes with intermittent orbital stirring) in a computerized plate reader (MR5000/Biolinx, Dynatech) at the wavelength of 490 nm corrected from absorbance at 630 nm. The results are expressed as a percentage of the total lysis carried out in the presence of detergent (1% Triton X100).

Compound | activity of LDH in the medium [1] | lytic activity (LDH activity) ([2]; 300 mOsm/L, 750 μM of DC, after one hour (FIG. 15 B)) [%] | maximum lysis (LDH activity) ([2]; 300 mOsm/L, DC 0 to 750 μM, incubation of one hour) [%] | LDH activity ([2]; 300 mOsm/L, DC 750 μM, after 30 minutes of incubation) [%] | LDH activity ([2]; 300 mOsm/L, DC 750 μM, after 2 hours of incubation) [%] | LDH activity ([2]; DC 750 μM added to hypo-osmolar (160 mOsm/L) aqueous saline solution, after one hour (FIG. 15 D or F)) [%]
C[C@H](CCC(=O)NCCS(=O)(=O)[O-])[C@H]1CC[C@H]2[C@@H]3CC[C@@H]4C[C@H](O)CC[C@]4(C)[C@H]3C[C@H](O)[C@]12C.[Na+] [TDC, sodium tauro-deoxycholate] | much more increased |  |  |  |  | 
sodium deoxycholate [DC] |  | 38±5 | 42±7 | 26 | 37 | ~72±8
